In patent US10654828B2 (NOVARTIS AG, priority 2017, dated 2020):
Like-named read-outs stand apart in the source and are kept apart here.

Legend:
AKT = AKT activation: Phospho-AKT (Ser473) antibody staining in reporter cells; format: cell-based; settings: U2OS GFP-FoxO3a H212R cells, serum starved overnight, compound 30 minutes, total cellular intensity of Phospho-AKT (Ser473) staining, DMSO control 0%
Experimental: (§1) Phosphorylation of AKT on S473 and FoxO3a nuclear to cytoplasmic translocation were used as readouts of PI3K/Akt/mTOR pathway activation downstream of growth factor signaling.
(§2) Reporter cell line. U2OS GFP-FoxO3a H212R reporter cell line was established by transducing U2OS cells with the retroviral plasmid pLEGFP-C1 containing FoxO3a H212R transgene and selecting for G418 resistant clones.
(§3) Reporter assay. U2OS GFP-FoxO3a H212R cells were plated in 384-well plates at 4000 cells per well in 30 microliters of McCoy's 5 A medium containing 10% FBS. On day 1 the cells were washed with serum free medium and serum starved overnight. On day 2 the cells were treated with different doses of the compounds for 30 minutes, fixed with 4% Paraformaldehyde for 1 hour and stained with Phospho-AKT (Ser473) antibody (Cell Signaling Technology, catalog #4060) overnight at 4 degrees Celsius. After nuclei staining with Hoechst 33342 (Life Technologies, catalog # H3570) the plates were imaged with InCell 2000 (GE Healthcare Bio-Sciences). FoxO3a inhibition activity is calculated as the ratio of nuclear to cytosolic GFP intensity in percent. AKT activation is measured as the total cellular intensity of Phospho-AKT antibody staining in percent. DMSO control is set as 0% activity.

FoxO3a = FoxO3a inhibition: GFP-FoxO3a nuclear to cytoplasmic translocation reporter assay; format: cell-based; settings: U2OS GFP-FoxO3a H212R cells, serum starved overnight, compound 30 minutes, ratio of nuclear to cytosolic GFP intensity, DMSO control 0%, read-out: FoxO AC50
Experimental: as §1, §2, §3

`Cc1cc(C(N)=O)nn1-c1ccc2c(ccn2Cc2ccc(C3CCN(C)C3)cc2)c1` (racemic) [Example 2-1, rac-5-methyl-1-(1-(4-(1-methylpyrrolidin-3-yl)benzyl)-1H-indol-5-yl)-1H-pyrazole-3-carboxamide] gave an AC50 (AKT; Homo sapiens, U2OS, 0.5 h) of 2510 nM and an AC50 (FoxO3a; Homo sapiens, U2OS, 0.5 h) of 733 nM.

With `Cc1cc(C(N)=O)nn1-c1ccc2c(ccn2Cc2ccc(C3=C[C@H]4CNC[C@H]4C3)cc2)c1` (racemic) [Example 24, (cis)-1-(1-(4-(1,2,3,3a,4,6a-hexahydrocyclopenta[c]pyrrol-5-yl)benzyl)-1H-indol-5-yl)-5-methyl-1H-pyrazole-3-carboxamide] the AC50 (AKT; Homo sapiens, U2OS, 0.5 h) was 1200 nM and the AC50 (FoxO3a; Homo sapiens, U2OS, 0.5 h) was 381 nM.

`Cc1cc(C(N)=O)nn1-c1ccc2c(ccn2Cc2ccc(C3=C[C@H]4CN(C)C[C@H]4C3)cc2)c1` (racemic) [Example 25, (cis)-5-methyl-1-(1-(4-(2-methyl-1,2,3,3a,4,6a-hexahydrocyclopenta[c]pyrrol-5-yl)benzyl)-1H-indol-5-yl)-1H-pyrazole-3-carboxamide] was tested, and the AC50 (AKT; Homo sapiens, U2OS, 0.5 h) was 1120 nM and the AC50 (FoxO3a; Homo sapiens, U2OS, 0.5 h) was 215 nM.

`Cc1cc(C(N)=O)nn1-c1ccc2c(ccn2Cc2ccc(CC3CCN(C)C3)cc2)c1` (racemic) [Example 31, rac-5-methyl-1-(1-(4-((1-methylpyrrolidin-3-yl)methyl)benzyl)-1H-indol-5-yl)-1H-pyrazole-3-carboxamide] gave an AC50 (AKT; Homo sapiens, U2OS, 0.5 h) of 747 nM and an AC50 (FoxO3a; Homo sapiens, U2OS, 0.5 h) of 350 nM.

`Cc1cc(C(N)=O)nn1-c1ccc2c(ccn2Cc2ccc(C3=CCN4CCCC3C4)cc2)c1` (single isomer, unassigned) [Example 13, 1-(1-(4-(1-azabicyclo[3.3.1]non-3-en-4-yl)benzyl)-1H-indol-5-yl)-5-methyl-1H-pyrazole-3-carboxamide] gave an AC50 (AKT; Homo sapiens, U2OS, 0.5 h) of 1530 nM and an AC50 (FoxO3a; Homo sapiens, U2OS, 0.5 h) of 437 nM.

In the case of `Cc1cc(C(N)=O)nn1-c1ccc2c(ccn2Cc2ccc(C3=CCN4CCCC3C4)cc2)c1` (single isomer, unassigned) [Example 14, 1-(1-(4-(1-azabicyclo[3.3.1]non-3-en-4-yl)benzyl)-1H-indol-5-yl)-5-methyl-1H-pyrazole-3-carboxamide], the AC50 (AKT) is reported as 2100 nM and the AC50 (FoxO3a) is reported as 652 nM.

`Cc1cc(C(N)=O)nn1-c1ccc2c(ccn2Cc2ccc(C3CCN(C)CC3(C)C)cc2)c1` (single isomer, unassigned) [Example 16-2, 5-methyl-1-(1-(4-(1,3,3-trimethylpiperidin-4-yl)benzyl)-1H-indol-5-yl)-1H-pyrazole-3-carboxamide] was tested, and the AC50 (AKT) was 1220 nM and the AC50 (FoxO3a) was 161 nM.

`Cc1cc(C(N)=O)nn1-c1ccc2c(ccn2Cc2ccc(C3CCN(C)CC3(C)C)cc2)c1` (single isomer, unassigned) [Example 16-3, 5-methyl-1-(1-(4-(1,3,3-trimethylpiperidin-4-yl)benzyl)-1H-indol-5-yl)-1H-pyrazole-3-carboxamide] showed an AC50 (AKT) of 3190 nM and an AC50 (FoxO3a) of 1040 nM.

`Cc1cc(C(N)=O)nn1-c1ccc2c(ccn2Cc2ccc(C3=CCN(C)CC3C)cc2)c1` (single isomer, unassigned) [Example 17-2, 1-(1-(4-(1,3-dimethyl-1,2,3,6-tetrahydropyridin-4-yl)benzyl)-1H-indol-5-yl)-5-methyl-1H-pyrazole-3-carboxamide] showed an AC50 (AKT) of 123 nM and an AC50 (FoxO3a) of 47 nM.

For `Cc1cc(C(N)=O)nn1-c1ccc2c(ccn2Cc2ccc(C3=CCN(C)CC3C)cc2)c1` (single isomer, unassigned) [Example 17-3, 1-(1-(4-(1,3-dimethyl-1,2,3,6-tetrahydropyridin-4-yl)benzyl)-1H-indol-5-yl)-5-methyl-1H-pyrazole-3-carboxamide], the AC50 (AKT) was 840 nM and the AC50 (FoxO3a) was 251 nM.

Work on `Cc1cc(C(N)=O)nn1-c1ccc2c(ccn2Cc2ccc(C3CCCN(C)CC3)cc2)c1` (single isomer, unassigned) [Example 29-1, 5-methyl-1-(1-(4-(1-methylazepan-4-yl)benzyl)-1H-indol-5-yl)-1H-pyrazole-3-carboxamide] yielded an AC50 (AKT; Homo sapiens, U2OS, 0.5 h) of 1690 nM and an AC50 (FoxO3a; Homo sapiens, U2OS, 0.5 h) of 483 nM.

For `Cc1cc(C(N)=O)nn1-c1ccc2c(ccn2Cc2ccc(C3CCCN(C)CC3)cc2)c1` (single isomer, unassigned) [Example 29-2, 5-methyl-1-(1-(4-(1-methylazepan-4-yl)benzyl)-1H-indol-5-yl)-1H-pyrazole-3-carboxamide], the AC50 (AKT) was 2100 nM and the AC50 (FoxO3a) was 818 nM.

`Cc1cc(C(N)=O)nn1-c1ccc2c(ccn2Cc2ccc(NC3CCN(C)C3)cc2)c1` (single isomer, unassigned) [Example 37-1, 5-Methyl-1-(1-(4-((1-methylpyrrolidin-3-yl)amino)benzyl)-1H-indol-5-yl)-1H-pyrazole-3-carboxamide] was tested, and the AC50 (AKT; Homo sapiens, U2OS, 0.5 h) was 4790 nM and the AC50 (FoxO3a; Homo sapiens, U2OS, 0.5 h) was 724 nM.

In the case of `Cc1cc(C(N)=O)nn1-c1ccc2c(ccn2Cc2ccc(NC3CCN(C)C3)cc2)c1` (single isomer, unassigned) [Example 37-2, 5-methyl-1-(1-(4-((1-methylpyrrolidin-3-yl)amino)benzyl)-1H-indol-5-yl)-1H-pyrazole-3-carboxamide], the AC50 (AKT) is reported as 4080 nM and the AC50 (FoxO3a) is reported as 928 nM.

For `Cc1cc(C(N)=O)nn1-c1ccc2c(ccn2Cc2ccc(C3=CCN(C)CC3)cc2)c1` [Example 1-1, 5-methyl-1-(1-(4-(1-methyl-1,2,3,6-tetrahydropyridin-4-yl)benzyl)-1H-indol-5-yl)-1H-pyrazole-3-carboxamide], the AC50 (AKT; Homo sapiens, U2OS, 0.5 h) was 138 nM and the AC50 (FoxO3a; Homo sapiens, U2OS, 0.5 h) was 53 nM.

`Cc1cc(C(N)=O)nn1-c1ccc2c(ccn2Cc2ccc(-c3ccncc3)cc2)c1` [Example 1-2, 5-methyl-1-(1-(4-(pyridin-4-yl)benzyl)-1H-indol-5-yl)-1H-pyrazole-3-carboxamide] was tested, and the AC50 (FoxO3a; Homo sapiens, U2OS, 0.5 h) was 102 nM.

`Cc1cc(C(N)=O)nn1-c1ccc2c(ccn2Cc2ccc(C3=CCOCC3)cc2)c1` [Example 1-3, 1-(1-(4-(3,6-dihydro-2H-pyran-4-yl)benzyl)-1H-indol-5-yl)-5-methyl-1H-pyrazole-3-carboxamide] was tested, and the AC50 (AKT; Homo sapiens, U2OS, 0.5 h) was > 10000 nM and the AC50 (FoxO3a; Homo sapiens, U2OS, 0.5 h) was 201 nM.

In the case of `CC(=O)N1CC=C(c2ccc(Cn3ccc4cc(-n5nc(C(N)=O)cc5C)ccc43)cc2)CC1` [Example 1-4, 1-(1-(4-(1-acetyl-1,2,3,6-tetrahydropyridin-4-yl)benzyl)-1H-indol-5-yl)-5-methyl-1H-pyrazole-3-carboxamide], the AC50 (AKT; Homo sapiens, U2OS, 0.5 h) is reported as 252 nM and the AC50 (FoxO3a; Homo sapiens, U2OS, 0.5 h) is reported as 121 nM.

In the case of `Cc1cc(C(N)=O)nn1-c1ccc2c(ccn2Cc2ccc(-c3ccc(C#N)cc3)cc2)c1` [Example 1-5, 1-(1-((4′-cyano-[1,1′-biphenyl]-4-yl)methyl)-1H-indol-5-yl)-5-methyl-1H-pyrazole-3-carboxamide], the AC50 (AKT; Homo sapiens, U2OS, 0.5 h) is reported as > 10000 nM and the AC50 (FoxO3a; Homo sapiens, U2OS, 0.5 h) is reported as 285 nM.

Compound `Cc1cc(C(N)=O)nn1-c1ccc2c(ccn2Cc2ccc(-c3ccc(S(C)(=O)=O)cc3)cc2)c1` [Example 1-6, 5-methyl-1-(1-((4′-(methylsulfonyl)-[1,1′-biphenyl]-4-yl)methyl)-1H-indol-5-yl)-1H-pyrazole-3-carboxamide] has an AC50 (AKT; Homo sapiens, U2OS, 0.5 h) of 250 nM and an AC50 (FoxO3a; Homo sapiens, U2OS, 0.5 h) of 101 nM.

With `Cc1cc(C(N)=O)nn1-c1ccc2c(ccn2Cc2ccc(-c3ccc4nccn4c3)cc2)c1` [Example 1-7, 1-(1-(4-(imidazo[1,2-a]pyridin-6-yl)benzyl)-1H-indol-5-yl)-5-methyl-1H-pyrazole-3-carboxamide] the AC50 (AKT; Homo sapiens, U2OS, 0.5 h) was 680 nM and the AC50 (FoxO3a; Homo sapiens, U2OS, 0.5 h) was 194 nM.

In the case of `Cc1cc(C(N)=O)nn1-c1ccc2c(ccn2Cc2ccc(C3=CCCN(C)C3)cc2)c1` [Example 1-8, 5-methyl-1-(1-(4-(1-methyl-1,2,5,6-tetrahydropyridin-3-yl)benzyl)-1H-indol-5-yl)-1H-pyrazole-3-carboxamide], the AC50 (AKT; Homo sapiens, U2OS, 0.5 h) is reported as > 10000 nM and the AC50 (FoxO3a; Homo sapiens, U2OS, 0.5 h) is reported as 517 nM.

`Cc1cc(C(N)=O)nn1-c1ccc2c(ccn2Cc2ccc(-c3cnc4c(c3)OCCN4C)cc2)c1` [Example 1-9, 5-methyl-1-(1-(4-(4-methyl-3,4-dihydro-2H-pyrido[3,2-b][1,4]oxazin-7-yl)benzyl)-1H-indol-5-yl)-1H-pyrazole-3-carboxamide] showed an AC50 (AKT; Homo sapiens, U2OS, 0.5 h) of 318 nM and an AC50 (FoxO3a; Homo sapiens, U2OS, 0.5 h) of 109 nM.

With `Cc1cc(C(N)=O)nn1-c1ccc2c(ccn2Cc2ccc(C3CCN(CCCN)CC3)cc2)c1` [Example 8, 1-(1-(4-(1-(3-aminopropyl)piperidin-4-yl)benzyl)-1H-indol-5-yl)-5-methyl-1H-pyrazole-3-carboxamide] the AC50 (FoxO3a; Homo sapiens, U2OS, 0.5 h) was 466 nM.

`CC(=O)NCCCN1CCC(c2ccc(Cn3ccc4cc(-n5nc(C(N)=O)cc5C)ccc43)cc2)CC1` [Example 9, 1-(1-(4-(1-(3-acetamidopropyl)piperidin-4-yl)benzyl)-1H-indol-5-yl)-5-methyl-1H-pyrazole-3-carboxamide] gave an AC50 (FoxO3a; Homo sapiens, U2OS, 0.5 h) of 301 nM.

`Cc1cc(C(N)=O)nn1-c1ccc2c(c1)c(CCCO)cn2Cc1ccc([C@@H]2C[C@@H]3CN(C)C[C@@H]3C2)cc1` [Example 38, 1-(3-(3-hydroxypropyl)-1-(4-((3aR,5r,6aS)-2-methyloctahydrocyclopenta[c]pyrrol-5-yl)benzyl)-1H-indol-5-yl)-5-methyl-1H-pyrazole-3-carboxamide] was tested, and the AC50 (FoxO3a; Homo sapiens, U2OS, 0.5 h) was 81 nM.
